How the values were obtained:
hKCNK9 = biological target: T1, hKCNK9 (Homo sapiens, UniProt Q9NPC2); experiment: Two-electrode voltage clamp on Xenopus laevis oocytes expressing hKCNK9; format: cell-based; conditions: for effect on basal activity of hKCNK9: 1 mM
T1 construct: host or cells: Xenopus laevis oocytes injected with cRNA (plasmid pCR4-TOPO)
Source text: (§1) Human KCNK3 (TASK-1, K2P3.1) cloned into the expression vector pIRES-CD8 was a gift from Dr. Fabrice Duprat (Institut National de la Santé et de la Recherche Médicale, Antipolis, France). Human KCNK18 (hTRESK, K2P18.1), cloned into the plasmid pEXO, was a gift from Dr. P. Enyedi (Semmelweis University, Budapest, Hungary). These plasmids were linearized with the restriction enzymes BamHI and XbaI, respectively, and then used as templates for in vitro transcription. Human KCNK9 (hTASK-3, K2P9.1) cloned into the expression vector pCR4-TOPO, was purchased from Imagenes (Berlin, Germany). The plasmid was linearized with the restriction enzyme SspI, to generate a linear cDNA template for in vitro transcription. mKCNK3 was isolated from mouse heart by standard procedures and inserted into pSGEM. mKCNK9 and mKCNK18 were kindly provided by Dr. D. Bayliss (University of Virginia, Charlottesville, VA, United States) and Prof. Dr. P. Enyedi (Semmelweis University, Budapest, Hungary). Both channels were subcloned into pSGEM. The pSGEM plasmids were subsequently linearized with the restriction enzyme PacI. The capped RNAs were synthesized in the presence of the capping analog m7G(5′)ppp(5′)G using the AmpliCap-T7 Message Maker kit (Epicentre, Madison, WI, United States). The cRNA was dissolved in nuclease-free water to obtain a final concentration of 100 ng/μL.
The expression in Xenopus laevis oocytes was essentially performed as previously described ([Beltrán et al., 2013]). Briefly, mature female Xenopus laevis frogs were anesthetized with 0.15% MS-222, and surgery was performed according to standard methods, where the extracted ovarian lobes were placed into Ca^2+-free Barth solution containing collagenase type II (Worthington Biochemical Corporation, Lakewood, NJ, United States) and kept for 90 min on a shaker at 40 rpm (room temperature). Healthy stage V and VI oocytes were selected for injection with cRNA coding for the proteins of interest. Thirty nanoliters of cRNA (100 ng/μL) of each channel were injected using a Microinjector Micro 4 ^TM (World Precision Instruments). After injection, the oocytes were kept in ND96 (96 mM NaCl; 2 mM KCl; 1.8 mM CaCl2; 1 mM MgCl2; 2.5 mM Sodium pyruvate; 10 mM, HEPES [4-(2-hydroxyethyl)-1-piperazineethanesulfonic acid), pH 7.4]. The measurements were performed 24 to 72 h after injection. The oocytes were placed in a 100 μL chamber that was perfused with frog Ringer’s solution (115 mM NaCl; 2.5 mM KCl; 1.8 mM CaCl2, and 10 mM HEPES, pH 7.2). The substances were dissolved in this solution before being manually applied to the oocytes using an automatic pipette (Research pro, Eppendorf, Germany). The application time was usually three ramps (approximately 10 s). […]

hKCNK3 = biological target: T2, hKCNK3 (Homo sapiens, UniProt O14649); experiment: Two-electrode voltage clamp on Xenopus laevis oocytes expressing hKCNK3; format: cell-based; conditions: for effect on basal activity of hKCNK3: 1 mM; for effect on basal activity of hKCNK3 / IC50: Xenopus oocytes; for IC50: current at +50 mV normalized to pre-application, read-out: IC50 on hKCNK3; for % of basal activity after saturating concentrations: hKCNK3 in Xenopus oocytes
T2 construct: expressed in transfected cells; host or cells: Xenopus laevis oocytes injected with cRNA (plasmid pIRES-CD8, gift of Dr. Fabrice Duprat)
T2 sequence (O14649 whole entry): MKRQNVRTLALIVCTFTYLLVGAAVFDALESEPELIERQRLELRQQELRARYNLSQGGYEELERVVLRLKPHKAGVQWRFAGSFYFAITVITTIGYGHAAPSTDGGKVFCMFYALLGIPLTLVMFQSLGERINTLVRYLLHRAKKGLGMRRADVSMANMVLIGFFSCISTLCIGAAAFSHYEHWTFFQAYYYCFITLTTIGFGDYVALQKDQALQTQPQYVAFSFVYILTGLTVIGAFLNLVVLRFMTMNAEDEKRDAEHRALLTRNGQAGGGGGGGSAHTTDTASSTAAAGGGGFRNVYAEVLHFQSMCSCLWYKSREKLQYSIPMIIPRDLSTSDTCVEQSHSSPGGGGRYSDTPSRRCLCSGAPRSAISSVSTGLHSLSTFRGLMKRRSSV
Source text: as §1
The expression in Xenopus laevis oocytes was essentially performed as previously described ([Beltrán et al., 2013]). Briefly, mature female Xenopus laevis frogs were anesthetized with 0.15% MS-222, and surgery was performed according to standard methods, where the extracted ovarian lobes were placed into Ca^2+-free Barth solution containing collagenase type II (Worthington Biochemical Corporation, Lakewood, NJ, United States) and kept for 90 min on a shaker at 40 rpm (room temperature). Healthy stage V and VI oocytes were selected for injection with cRNA coding for the proteins of interest. Thirty nanoliters of cRNA (100 ng/μL) of each channel were injected using a Microinjector Micro 4 ^TM (World Precision Instruments). After injection, the oocytes were kept in ND96 (96 mM NaCl; 2 mM KCl; 1.8 mM CaCl2; 1 mM MgCl2; 2.5 mM Sodium pyruvate; 10 mM, HEPES [4-(2-hydroxyethyl)-1-piperazineethanesulfonic acid), pH 7.4]. The measurements were performed 24 to 72 h after injection. The oocytes were placed in a 100 μL chamber that was perfused with frog Ringer’s solution (115 mM NaCl; 2.5 mM KCl; 1.8 mM CaCl2, and 10 mM HEPES, pH 7.2). The substances were dissolved in this solution before being manually applied to the oocytes using an automatic pipette (Research pro, Eppendorf, Germany). The application time was usually three ramps (approximately 10 s). For recording, a Turbo Tec-03x (npi electronic GmbH, Tamm, Germany) amplifier was used, with an acquisition rate of 1000 Hz and a low pass filter of 20 Hz. Borosilicate glass capillaries were pulled with a Kopf vertical pipette puller. The pulled glass capillaries were filled with 3 M KCl.
A ramp series protocol was used to evaluate the activity of KCNK channels as previously described ([Beltrán et al., 2013]). Briefly, voltage ramps from –100 mV to + 50 mV ([…]) followed by a constant of +50 mV (150 ms) were applied at a time interval of 2 s. […] This value was then normalized to the average obtained from three ramps prior to the application. In most cases, the currents elicited by this voltage-clamp ramp series protocol were more than ten times larger than the background currents observed in uninjected oocytes, while also presenting the described outward rectification under physiological concentrations of intracellular and extracellular K^+ ([Goldstein et al., 2001]; [Enyedi and Czirják, 2010]). Due to these characteristics, no leakage subtraction was considered necessary. Oocytes not fulfilling these characteristics were not considered for data analysis. […]

hKCNK18 = biological target: T3, hKCNK18 (Homo sapiens, UniProt Q7Z418); experiment: Two-electrode voltage clamp on Xenopus laevis oocytes expressing hKCNK18; format: cell-based; conditions: for effect on basal activity of hKCNK18: 1 mM
T3 construct: expressed in transfected cells; host or cells: Xenopus laevis oocytes injected with cRNA (plasmid pEXO, gift of Dr. P. Enyedi)
T3 sequence (Q7Z418 1-384): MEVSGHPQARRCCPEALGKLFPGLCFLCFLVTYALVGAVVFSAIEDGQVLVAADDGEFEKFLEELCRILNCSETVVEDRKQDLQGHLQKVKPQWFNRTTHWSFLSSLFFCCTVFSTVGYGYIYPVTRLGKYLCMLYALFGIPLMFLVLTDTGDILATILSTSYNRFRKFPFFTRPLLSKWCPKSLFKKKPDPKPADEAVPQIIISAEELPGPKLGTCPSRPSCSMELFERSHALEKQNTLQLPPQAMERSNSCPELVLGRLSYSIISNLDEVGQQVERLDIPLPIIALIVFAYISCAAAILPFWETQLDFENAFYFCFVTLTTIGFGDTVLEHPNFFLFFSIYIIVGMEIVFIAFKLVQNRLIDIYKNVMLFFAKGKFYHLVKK
Source text: as §1
The expression in Xenopus laevis oocytes was essentially performed as previously described ([Beltrán et al., 2013]). Briefly, mature female Xenopus laevis frogs were anesthetized with 0.15% MS-222, and surgery was performed according to standard methods, where the extracted ovarian lobes were placed into Ca^2+-free Barth solution containing collagenase type II (Worthington Biochemical Corporation, Lakewood, NJ, United States) and kept for 90 min on a shaker at 40 rpm (room temperature). Healthy stage V and VI oocytes were selected for injection with cRNA coding for the proteins of interest. Thirty nanoliters of cRNA (100 ng/μL) of each channel were injected using a Microinjector Micro 4 ^TM (World Precision Instruments). […]

tongue surface = test system: tongue surface; design: method as in Dawid et al., 2012; conditions: human, ref Dawid et al., 2012, cited from earlier work; for pungent threshold concentration: filter paper on tongue

T1 sequence (Q9NPC2 whole entry): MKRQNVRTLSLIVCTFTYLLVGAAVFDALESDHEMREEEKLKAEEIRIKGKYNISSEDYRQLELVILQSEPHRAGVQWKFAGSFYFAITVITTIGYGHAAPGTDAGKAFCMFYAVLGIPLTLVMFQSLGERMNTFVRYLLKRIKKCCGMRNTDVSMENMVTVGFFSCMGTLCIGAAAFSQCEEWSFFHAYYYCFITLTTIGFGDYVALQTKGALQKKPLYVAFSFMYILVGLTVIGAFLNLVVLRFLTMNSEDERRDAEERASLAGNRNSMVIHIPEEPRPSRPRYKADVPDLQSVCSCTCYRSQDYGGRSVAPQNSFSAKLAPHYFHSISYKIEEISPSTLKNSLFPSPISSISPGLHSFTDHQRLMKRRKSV

Row | Molecule | effect on basal activity of hKCNK9 (hKCNK9) | IC50 (hKCNK9; N = 3–6) [µM] | effect on basal activity of hKCNK3 (hKCNK3) | IC50 (hKCNK3) [µM] | % of basal activity after saturating concentrations (hKCNK3) [%] | effect on basal activity of hKCNK18 (hKCNK18) | IC50 (hKCNK18; N = 3–6) [µM] | pungent threshold concentration (tongue surface) [nmol/cm^2] | threshold for oral pungency (tongue surface) [μmol/cm^2]
1 | 1-(octadeca-2E,4E,13/12Z-trienoyl)-pyrrolidine [5b/6b] | inhibited | 236 ± 56 | most pronounced effect | 19 ± 2.1 | 27 ± 3 | – | – | – | –
2 | O=C(/C=C/C=C/c1ccc2c(c1)OCO2)N1CCCC1 [1b, piperyline] | decrease in their basal activity | – | decrease in their basal activity | 180 ± 39 | 55 ± 5 | decrease in their basal activity | 252 ± 55 | 5.1 | 0.005
3 | CC(C)CNC(=O)/C=C/C=C/c1ccc2c(c1)OCO2 [1c, piperlonguminine] | decrease in their basal activity | – | decrease in their basal activity | 113 ± 79.5 | 50 ± 14 | decrease in their basal activity | – | 10.4 | 0.01
4 | O=C(/C=C/C=C/C=C/c1ccc2c(c1)OCO2)N1CCCCC1 [2a, piperettine] | – | – | – | – | – | – | – | 5.2 | –
5 | O=C(/C=C/C=C/CC/C=C/c1ccc2c(c1)OCO2)N1CCCCC1 [3a, dehydropipernonaline] | – | – | – | 44 ± 6.7 | 39 ± 1 | – | – | 152.1 | –
6 | O=C(/C=C/C=C/CC/C=C/c1ccc2c(c1)OCO2)N1CCCC1 [3b, 1-[1-oxo-9(3,4-methylenedioxyphenyl)-2E,4E,8E-nonatrienyl]-pyrrolidine] | – | – | most pronounced effect | 49.6 ± 8.5 | 35 ± 3 | – | – | – | –
7 | O=C(/C=C/C=C/CCCCCC/C=C/c1ccc2c(c1)OCO2)N1CCCC1 [4b, brachyamide A] | – | – | most pronounced effect | 32 ± 11 | 51 ± 5 | – | – | – | –
